Values of other authors in patent publication US11229230B2, “Antioxidant-enriched multivitamin composition and methods of use” (Callion Pharma, LLC, priority 2016, dated 2022).

How the values were obtained:
cystic fibrosis = details: oral treatment, Phase II clinical study
cystic fibrosis patients = details: inhaled

## CC(=O)N[C@@H](CS)C(=O)O [N-acetylcysteine]
Cystic fibrosis
  lung function: did not improve lung function

## N[C@@H](CCC(=O)N[C@@H](CS)C(=O)NCC(=O)O)C(=O)O [glutathione]
Cystic fibrosis patients
  effectiveness in cystic fibrosis: has not been effective
